Literature values, collected in patent EP2742940A1, “Salts of aza-bicyclo-di-aryl ethers for adminstration once daily, twice daily or thrice daily” (IP Gesellschaft für Management mbH, priority 2012, dated 2014).
“And” between values parts separate entries of the source, which are not always exact repeats. Equal entries are not always repeated. Where two headings read alike, the source gives them in different places.

Tests used:
[1] = tested on: BRAF-MEK-ERK cascade; conditions: BRAF-MEK-ERK cascade assay, mean ± SEM, n=3
[2] = tested on: A375 cells; conditions: XTT, three days after compound addition
[3] = tested on: P-Erk; conditions: A375 cells, P-Erk In-Cell-Western, 3 hrs treatment
[4] = rat; for %F: p.o. (3 mg/kg); for PK-parameters compared to Example 1: one-way analysis of variance
[5] = design: Initial water content / Hygroscopy @ 85%RH: unit not given here; conditions: for Initial water content: Example 7 comparison of salt forms; for moisture gain: at 85% RH
[6] = dogs (N=3), 1.4 µmol/kg p.o.
[7] = tested on: DUSP6; conditions: A375 tumor bearing athymic-nude rats, single oral dose, at 12h and 24h (p=0.003 and p=0.006), two-way analysis of variance
[8] = at 65°C
[9] = male Wistar rats, oral 10 mg/kg, Mean All (n=8)
[10] = male Wistar rats, oral 10 mg/kg, Median [range]
[11] = male Wistar rats, oral 10 mg/kg, individual rats 01-08, listed as mono-fumarate, 10 mg/kg

SMILES: O=S(=O)(Nc1c(Nc2ccc(I)cc2F)c(F)c(F)c2ccoc12)C1(CC(O)CO)CC1 (racemic) [Example 1, N-(4,5-difluoro-6-((2-fluoro-4-iodophenyl)amino)benzofuran-7-yl)-1-(2,3-dihydroxypropyl)cyclopropane-1-sulfonamide]
- IC50 [1]: 2.1 ± 0.58 nM
- GI50 [2]: 17.6 nM
- EC50 [3]: 12.2 nM
- %F [4]: 87%

SMILES: Cc1ccc(-c2ccc(O[C@H]3CN4CCC3CC4)cn2)cc1.O=C(O)/C=C/C(=O)O [Compound B, fumarate salt of (R)-3-(6-(4-methylphenyl)-pyridin-3-yloxy)-1-aza-bicyclo[2.2.2]octane]
- Hygroscopy @ 85%RH [5]: 0.5
- Initial water content [5]: <0.5
- moisture gain [5]: 0.5%
- Plasma (pmoles/ml±SD) ([6]; 0.5 hour): 49.4 ± 21.9 pmol/mL
- Plasma (pmoles/ml±SD) ([6]; 1 hour): 67.6 ± 22.6 pmol/mL
- Plasma (pmoles/ml±SD) ([6]; 2 hour): 75.2 ± 36.8 pmol/mL
- Plasma (pmoles/ml±SD) ([6]; 4 hour): 27.5 ± 13.3 pmol/mL
- Plasma (pmoles/ml±SD) ([6]; 8 hour): 8.1 ± 3.0 pmol/mL
- Plasma (pmoles/ml±SD) ([6]; 24 hour): 0.8 ± 0.7 pmol/mL
- Plasma (pmoles/ml±SD) ([6]; fumarate salt form, 0.25 hour): 14.7 ± 1.1 pmol/mL
- T1/2 (male Wistar rats, oral 10 mg/kg, Mean All): 3.76 h
- AUClast [9]: 249 ng·h/mL
- AUClast/Dose (h·ng/mL)/(mg/kg) [9]: 25.4 (h·ng/mL)/(mg/kg)
- Cmax [9]: 161 ng/mL
- Cmax/Dose (ng/mL)/(mg/kg) [9]: 16.5 (ng/mL)/(mg/kg)
- Concentration in plasma, Time (h) 0.25 [9]: 149 ng/mL
- Concentration in plasma, Time (h) 0.5 [9]: 132 ng/mL
- Concentration in plasma, Time (h) 1 [9]: 77.4 ng/mL
- Concentration in plasma, Time (h) 2 [9]: 38.9 ng/mL
- Concentration in plasma, Time (h) 3 [9]: 19.5 ng/mL
- Concentration in plasma, Time (h) 4 [9]: 10.6 ng/mL
- Concentration in plasma, Time (h) 6 [9]: 5.10 ng/mL
- Concentration in plasma, Time (h) 8 [9]: 2.54 ng/mL
- Concentration in plasma, Time (h) 24 [9]: 0320 ng/mL
- Tlast [10]: 24.0 h
- Tmax [10]: 0.25 h
- AUClast [11]: 202 ng·h/mL and 259 ng·h/mL and 212 ng·h/mL and 188 ng·h/mL and 269 ng·h/mL and 292 ng·h/mL and 298 ng·h/mL and 272 ng·h/mL
- AUClast/Dose (h·ng/mL)/(mg/kg) [11]: 20.8 (h·ng/mL)/(mg/kg) and 26.3 (h·ng/mL)/(mg/kg) and 21.4 (h·ng/mL)/(mg/kg) and 192 (h·ng/mL)/(mg/kg) and 28.0 (h·ng/mL)/(mg/kg) and 30.1 (h·ng/mL)/(mg/kg) and 29.6 (h·ng/mL)/(mg/kg) and 27.9 (h·ng/mL)/(mg/kg)
- Cmax [11]: 167 ng/mL and 162 ng/mL and 78.4 ng/mL and 99.7 ng/mL and 242 ng/mL and 204 ng/mL and 184 ng/mL and 153 ng/mL
- Cmax/Dose (ng/mL)/(mg/kg) [11]: 17.2 (ng/mL)/(mg/kg) and 16.4 (ng/mL)/(mg/kg) and 7.88 (ng/mL)/(mg/kg) and 102 (ng/mL)/(mg/kg) and 25.2 (ng/mL)/(mg/kg) and 21.1 (ng/mL)/(mg/kg) and 18.3 (ng/mL)/(mg/kg) and 15.7 (ng/mL)/(mg/kg)
- Concentration in plasma, Time (h) 0.25 [11]: 167 ng/mL and 162 ng/mL and 77.8 ng/mL and 890 ng/mL and 242 ng/mL and 204 ng/mL and 93.3 ng/mL and 153 ng/mL
- Concentration in plasma, Time (h) 0.5 [11]: 104 ng/mL and 130 ng/mL and 784 ng/mL and 99.7 ng/mL and 143 ng/mL and 179 ng/mL and 184 ng/mL and 138 ng/mL
- Concentration in plasma, Time (h) 1 [11]: 67.1 ng/mL and 88.8 ng/mL and 41.3 ng/mL and 62.8 ng/mL and 83.2 ng/mL and 80.8 ng/mL and 101 ng/mL and 94.2 ng/mL
- Concentration in plasma, Time (h) 2 [11]: 27.4 ng/mL and 39.2 ng/mL and 378 ng/mL and 24.6 ng/mL and 47.1 ng/mL and 37.6 ng/mL and 54.8 ng/mL and 42.6 ng/mL
- Concentration in plasma, Time (h) 3 [11]: 12.4 ng/mL and 17.7 ng/mL and 25.3 ng/mL and 11.7 ng/mL and 19.6 ng/mL and 20.6 ng/mL and 25.1 ng/mL and 23.2 ng/mL
- Concentration in plasma, Time (h) 4 [11]: 906 ng/mL and 10.6 ng/mL and 13.3 ng/mL and 5.90 ng/mL and 9.71 ng/mL and 11.8 ng/mL and 13.0 ng/mL and 11.1 ng/mL
- Concentration in plasma, Time (h) 6 [11]: 749 ng/mL and 3.47 ng/mL and 7.63 ng/mL and 5.79 ng/mL and 4.29 ng/mL and 4.24 ng/mL and 4.05 ng/mL and 3.87 ng/mL
- Concentration in plasma, Time (h) 8 [11]: 291 ng/mL and 2.35 ng/mL and 3.62 ng/mL and 2.62 ng/mL and 2.46 ng/mL and 1.94 ng/mL and 238 ng/mL and 207 ng/mL
- T1/2 [11]: 2.44 h and 5.02 h and 3.62 h and 3.71 h and 2.02 h and 3.97 h and 5.51 h
- Tlast [11]: 8.0 h (2×) and 24.0 h (6×)
- Tmax [11]: 0.25 h (3×) and 025 h (2×) and 0.50 h (3×)
- AUClast (rats, acute oral dosing of 10 mg/kg): 249+-42 h ng/ml
- Cmax of the free form in plasma (rats, acute oral dosing of 10 mg/kg (relative to free form)): 161+-53 ng/ml

SMILES: O=S(=O)(Nc1c(Nc2ccc(I)cc2F)c(F)c(F)c2ccoc12)C1(C[C@H](O)CO)CC1 [Example 1A, (S)-N-(4,5-difluoro-6-((2-fluoro-4-iodophenyl)amino)benzofuran-7-yl)-1-(2,3-dihydroxypropyl)cyclopropane-1-sulfonamide]
- IC50 [1]: 2 ± 0.25 nM
- GI50 [2]: 13.4 nM
- EC50 [3]: 6.4 nM
- PK-parameters compared to Example 1 [4]: improved PK-parameters
- %F [4]: 132%
- lowering levels of DUSP-6 in tumor [7]: significantly more effective than Example- IB

SMILES: O=S(=O)(Nc1c(Nc2ccc(I)cc2F)c(F)c(F)c2ccoc12)C1(C[C@@H](O)CO)CC1 [Example 1B, (R)-N-(4,5-difluoro-6-((2-fluoro-4-iodophenyl)amino)benzofuran-7-yl)-1-(2,3-dihydroxypropyl)cyclopropane-1-sulfonamide]
- GI50 [2]: 29.6 nM
- EC50 [3]: 15.6 nM
- PK-parameters compared to Example 1 [4]: improved PK-parameters
- %F [4]: 126%

SMILES: Cc1ccc(-c2ccc(O[C@H]3CN4CCC3CC4)cn2)cc1.Cl [Hydrochloride, Form A, chloride salt (hydrochloride) of (R)-3-(6-(4-methylphenyl)-pyridin-3-yloxy)-1-aza-bicyclo[2.2.2]octane]
- Hygroscopy @ 85%RH [5]: ∼5
- Initial water content [5]: ∼5
- moisture gain [5]: about 5%

SMILES: Cc1ccc(-c2ccc(O[C@H]3CN4CCC3CC4)cn2)cc1.O=C(O)/C=C\C(=O)O [Maleate, maleate salt of (R)-3-(6-(4-methylphenyl)-pyridin-3-yloxy)-1-aza-bicyclo[2.2.2]octane]
- Hygroscopy @ 85%RH [5]: 0.3
- Initial water content [5]: <0.1
- moisture gain [5]: 0.3%

SMILES: Cc1ccc(-c2ccc(O[C@H]3CN4CCC3CC4)cn2)cc1.O=C(O)CC(=O)O [Malonate, malonate salt of (R)-3-(6-(4-methylphenyl)-pyridin-3-yloxy)-1-aza-bicyclo[2.2.2]octane]
- Hygroscopy @ 85%RH [5]: 1.3
- Initial water content [5]: ∼0
- moisture gain [5]: 1.3%

SMILES: Cc1ccc(-c2ccc(O[C@H]3CN4CCC3CC4)cn2)cc1.O=P(O)(O)O [Phosphate, Form A, phosphate salt of (R)-3-(6-(4-methylphenyl)-pyridin-3-yloxy)-1-aza-bicyclo[2.2.2]octane]
- Hygroscopy @ 85%RH [5]: 0.2
- Initial water content [5]: ∼0.5
- moisture gain [5]: 0.2%

SMILES: Cc1ccc(-c2ccc(O[C@H]3CN4CCC3CC4)cn2)cc1.O=C(O)CCC(=O)O [Succinate, succinate salt of (R)-3-(6-(4-methylphenyl)-pyridin-3-yloxy)-1-aza-bicyclo[2.2.2]octane]
- Hygroscopy @ 85%RH [5]: 0.3
- Initial water content [5]: ∼4.5
- moisture gain [5]: 0.3%

SMILES: Cc1cn(-c2cc(NC(=O)c3ccc(C)c(Nc4nccc(-c5cccnc5)n4)c3)cc(C(F)(F)F)c2)cn1 [nilotinib, 4-methyl-3-[[4-(3-pyridinyl)-2-pyrimidinyl]amino]-N-[5-(4-methyl-1 H-imidazol-1-yl)-3-(trifluoromethyl)phenyl] benzamide]
- solubility in lactic acid [8]: > 600 mg/mL
